Measured values as given in patent US20230263808A1 (UNIVERSITY OF FLORIDA RESEARCH FOUNDATION, INCORPORATED, priority 2020, published 2023).

Assay: Lactate-tolerance test (rate of glucose production)
Type: in vivo, C57BL/6 male mice
Settings: after overnight fast; 10 mg/kg Dex or SR16024, 50 mg/kg SR11466
Excerpt: A) The effects of all tested compounds on IL-1β-induced IL-6 production (x-axes) versus GR interaction with the indicated peptides. B-C) The effects of all tested compounds on the indicated GC-regulated phenotypes (x-axes) versus GR interaction with the CHD9_1023 and CENPR_1 peptides (y-axes). D-F) COC plots. Each point represents the Pearson correlation coefficient, r, between a distinct gene expression or GR-peptide interaction assay with assays indicated on the x and y axes. G) The effects of all tested compounds on IL-1β-induced IL-6 production (y-axes) versus insulin-induced protein synthesis. […] IL-β-induced IL-6 production by A549 cells treated with the indicated compounds was compared by AlphaLISA. […] Mice in panel K were subjected to a lactate-tolerance test (LTT).
We were also interested in whether the compounds would show dissociation between Glut4 translocation in skeletal muscle and gluconeogenesis in the liver, but enhanced glucose production is typically studied after weeks or months of GC treatment. However, we reasoned that an overnight fast should enable detection of effects after a single dose. […] Thus, profiling effects of GCs in the physiological context of nutrient deprivation allowed the discovery of two new types of glucocorticoids with improved profiles in skeletal muscle.

## C=CCOC1CC2(C)C(CCC2(O)C#CC)C2CCc3cc(C(=O)Nc4cccnc4C)ccc3C12 (stereo not shown) [SR11466]
  rate of glucose production in lactate tolerance test: increased the rate of glucose production
